{"source": "ChEMBL document CHEMBL5634148", "about": "“Synthesis and evaluation of novel pleuromutilin derivatives targeting the 50S ribosomal subunit for antibacterial ability” (Eur J Med Chem, 2023)", "key": {"Staphylococcus aureus [1]": {"system": "Staphylococcus aureus", "assay": "Bactericidal activity against methicillin-resistant Staphylococcus aureus ATCC 29213 incubated for 24 hrs by time kill assay", "format": "functional, organism-based"}, "[2]": {"assay": "Toxicity in Wistar rat assessed as piloerection at 2000 mg/kg, po measured for 24 hrs", "format": "organism-based", "details": "in vivo"}, "[3]": {"assay": "Toxicity in Wistar rat assessed as physical activity at 2000 mg/kg, po measured for 48 hrs", "format": "organism-based", "details": "in vivo"}, "[4]": {"assay": "Toxicity in Wistar rat assessed as absolute heart weight at 2000 mg/kg, po measured after 14 days (reference value: 0.86 +/- 0.09 g)", "format": "organism-based", "details": "in vivo, 336 h, time 14 day"}, "[5]": {"assay": "Toxicity in Wistar rat assessed as capillary congestion in lungs at 2000 mg/kg, po measured for 14 days by H and E staining based analysis", "format": "organism-based", "details": "in vivo, 336 h, time 14 day"}, "[6]": {"assay": "Toxicity in Wistar rat assessed as vascular congestion in lungs at 2000 mg/kg, po measured for 14 days by H and E staining based analysis", "format": "organism-based", "details": "in vivo, 336 h, time 14 day"}, "[7]": {"assay": "Toxicity in Wistar rat assessed as relative heart weight at 2000 mg/kg, po measured after 14 days (reference value: 0.36 +/- 0.03 %)", "format": "organism-based", "details": "in vivo, 336 h, time 14 day"}, "Escherichia coli": {"system": "Escherichia coli", "assay": "Antibacterial activity against Escherichia coli CICC 10389 assessed as bacterial growth inhibition incubated for 18 to 24 hrs by NCCLS based assay", "format": "functional", "details": "time 18-24 hrs"}, "[8]": {"assay": "Toxicity in Wistar rat assessed as absolute spleen weight at 2000 mg/kg, po measured after 14 days (reference value: 0.61 +/- 0.05 g)", "format": "organism-based", "details": "in vivo, 336 h, time 14 day"}, "[9]": {"assay": "Cytotoxicity against HEK293T cells assessed as cell viability incubated for 6 hrs by CCK8 assay", "format": "toxicity, cell-based, HEK-293T", "details": "human"}, "Staphylococcus aureus [10]": {"system": "Staphylococcus aureus", "assay": "Antibacterial activity against methicillin-resistant Staphylococcus aureus infected in neutropenic Balb/c mouse model assessed as reduction in bacterial load in kidney at 40 mg/kg, iv measured after 5 days", "format": "functional, organism-based", "details": "time 5.0 day"}, "Staphylococcus aureus [11]": {"system": "Staphylococcus aureus", "assay": "Antibacterial activity against methicillin-resistant Staphylococcus aureus infected in neutropenic Balb/c mouse model assessed as thickening of alveolar walls in lungs at 40 mg/kg, iv measured after 5 days", "format": "functional, organism-based", "details": "time 5.0 day"}, "Staphylococcus aureus [12]": {"system": "Staphylococcus aureus", "assay": "Antibacterial activity against methicillin-resistant Staphylococcus aureus ATCC 29213 assessed as reduction in bacterial count at 6 times MIC incubated for 24 hrs by time kill assay", "format": "functional"}}, "note": "Active and inactive are the calls of the source. No cut-off for these calls is given here."}
{"smiles": "C=C[C@]1(C)C[C@@H](OC(=O)CSc2ncnc(N(C)C)n2)[C@]2(C)[C@H](C)CC[C@]3(CCC(=O)[C@H]32)[C@@H](C)[C@@H]1O", "values": [{"measurement": "Activity", "setting": "Staphylococcus aureus [1]", "value": "Dose-Dependent Effect"}, {"measurement": "Activity", "setting": "[2]", "value": "Toxic"}, {"measurement": "Activity", "setting": "[3]", "value": "Non-Toxic"}, {"measurement": "Activity", "setting": "[4]", "value": 0.75, "unit": "g"}, {"measurement": "Activity", "setting": "[5]", "value": "Toxic"}, {"measurement": "Activity", "setting": "[6]", "value": "Toxic"}, {"measurement": "Activity", "setting": "[7]", "value": 0.34, "unit": "%"}, {"measurement": "MIC", "setting": "Escherichia coli", "value": "≥ 64", "unit": "µg/mL"}, {"measurement": "Activity", "setting": "[8]", "value": 0.43, "unit": "g"}, {"measurement": "CC50 at 6 h", "setting": "[9]", "value": 50.1, "unit": "µM"}, {"measurement": "Activity", "setting": "Staphylococcus aureus [10]", "value": "Active"}, {"measurement": "Activity", "setting": "Staphylococcus aureus [11]", "value": "Active"}, {"measurement": "log(activity)", "setting": "Staphylococcus aureus [12]", "value": 1.72}]}
